Source: US20250340552A1, “COMPOUNDS, COMPOSITIONS AND METHODS OF TREATING DISORDERS” (HOTSPOT THERAPEUTICS, INC., priority 2022, published 2025)
Read-outs that look alike come from different tables or passages of the source.

Target: T1, Cbl-B (Homo sapiens, UniProt Q13191)
T1 construct: MSD-Based Assay for Degradation of Cbl-B in THP-1 Cells; endogenous in cells; host or cells: THP-1 (title) / Jurkat (protocol text)
Experiment: MSD-based assay for degradation of Cbl-B in THP-1 cells
Type: cell-based
Method: MSD-Based Assay for Degradation of Cbl-B in THP-1 Cells
Assay plates were then shaken at 600 rpm for 5 minutes, followed by incubation for 24 hours in the 37° C. TC incubator. […] Cell debris was then spun down at maximum speed (about 3200 g) for 30 min and lysates frozen in the −80° C. fridge. Meanwhile, MSD plates (L15XA-3) were coated overnight at 4° C. with 1 ug/mL capture antibody (Anti-Cbl-B antibody, 246C5a and Mouse mAB, ab54362). […] Blocking buffer was 3% Blocker A (MSD, R93BA-4) in TBST. Plates were washed 3× with 150 ul/well of 1×TBST and sample lysates (70 ul/well) then added, followed by shaking for 1 hr at RT, 600 rpm. […] Plates were again washed 3× with 150 ul/well of 1×TBST, followed by addition of Secondary Detection antibody, SULFO-TAG anti-species antibody (Anti Rabbit Antibody (R32AB-5) MSD, R32AB-1) at a final concentration of 1 ug/ml and 25 uL/well, followed by shaking for 1 hr at RT, 600 rpm. Plates were again washed 3× with 150 ul/well of 1×TBST, followed by addition of 1×MSD reading buffer (MSD, R92TC-2), 150 ul/well, diluted from 4× with water.
Compound Dmax were binned into A through D as follows: A indicates >70%, B indicates 50-70%, C indicates 30-50%, D indicates <30%.

[1] = Cbl-B degradation, Jurkat cells seeded (heading: THP-1 cells), 24 hours incubation, MSD readout
[2] = Cbl-B degradation, Jurkat cells seeded (heading: THP-1 cells), 24 hours incubation, MSD readout, read-out: Dmax

T1 sequence (Q13191 whole entry): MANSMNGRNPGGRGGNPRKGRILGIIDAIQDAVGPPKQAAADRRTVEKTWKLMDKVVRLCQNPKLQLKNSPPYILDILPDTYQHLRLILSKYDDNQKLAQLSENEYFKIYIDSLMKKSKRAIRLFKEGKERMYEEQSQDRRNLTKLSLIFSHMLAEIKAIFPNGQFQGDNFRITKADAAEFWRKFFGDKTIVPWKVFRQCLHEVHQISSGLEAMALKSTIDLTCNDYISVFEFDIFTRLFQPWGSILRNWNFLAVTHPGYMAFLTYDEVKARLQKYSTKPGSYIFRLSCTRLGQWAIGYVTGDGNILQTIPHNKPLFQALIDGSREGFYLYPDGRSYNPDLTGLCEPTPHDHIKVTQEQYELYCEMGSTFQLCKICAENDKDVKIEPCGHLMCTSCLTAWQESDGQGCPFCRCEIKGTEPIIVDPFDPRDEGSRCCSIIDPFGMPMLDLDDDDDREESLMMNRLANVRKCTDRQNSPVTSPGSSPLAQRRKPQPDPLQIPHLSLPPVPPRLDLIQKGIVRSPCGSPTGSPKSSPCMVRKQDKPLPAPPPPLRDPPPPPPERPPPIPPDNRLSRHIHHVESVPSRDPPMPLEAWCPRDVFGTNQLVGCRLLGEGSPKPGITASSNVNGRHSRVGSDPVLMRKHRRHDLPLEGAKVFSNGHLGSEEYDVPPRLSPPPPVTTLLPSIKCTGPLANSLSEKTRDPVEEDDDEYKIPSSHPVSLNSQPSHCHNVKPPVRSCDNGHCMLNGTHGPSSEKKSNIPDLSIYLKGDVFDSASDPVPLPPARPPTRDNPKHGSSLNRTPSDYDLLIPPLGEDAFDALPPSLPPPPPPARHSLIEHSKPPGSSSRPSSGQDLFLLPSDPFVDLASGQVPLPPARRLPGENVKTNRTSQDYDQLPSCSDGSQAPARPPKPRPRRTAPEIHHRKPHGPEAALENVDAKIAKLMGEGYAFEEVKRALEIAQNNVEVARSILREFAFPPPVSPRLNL

Structure (SMILES) | DC50 [1] [nM] | Dmax (THP-1) [%] | Dmax [2] [%]
Cn1cnnc1[C@@H](c1cccc(-n2cc3c(C(F)(F)F)cc(CN4CCC(COCc5ccc(CN6CCN(c7ccc8c(c7)CN([C@@H]7CCC(=O)NC7=O)C8=O)CC6)cc5)CC4)cn3c2=O)c1)C1CCC1 [Compound 101] | 30 to 300 | 50 to 70 | 
Cn1cnnc1CC1(c2cccc(-n3cc4c(C(F)(F)F)cc(CN5CCC[C@@H](OCCc6ccc(CN7CCN(c8ccc9c(c8)CN([C@H]8CCC(=O)NC8=O)C9=O)CC7)cc6)C5)cn4c3=O)c2)COC1 (single isomer, unassigned) [Compound 240] | < 30 |  | > 70
CN(CC1CCN(Cc2cc3c(c(C(F)(F)F)c2)CN(c2cccc([C@H](c4nncn4C)C4CCC4)c2)C3=O)CC1)C(=O)c1ccc(N2CCN(c3ccc4c(c3)CN([C@H]3CCC(=O)NC3=O)C4=O)CC2)cc1 [Compound 184] | < 30 |  | > 70
CN(CC1CCN(Cc2cc3c(c(C(F)(F)F)c2)CN(c2cccc([C@H](c4nncn4C)C4CCC4)c2)C3=O)CC1)C(=O)c1ccc(N2CCN(c3ccc4c(c3)CN([C@@H]3CCC(=O)NC3=O)C4=O)CC2)cc1 [Compound 183] | 30 to 300 |  | 50 to 70
Cn1cnnc1[C@@H](c1cccc(-n2cc3c(C(F)(F)F)cc(CN4CCC(OCc5ccc(COCCNc6cccc7c6C(=O)N(C6CCC(=O)NC6=O)C7=O)cc5)CC4)cn3c2=O)c1)C1CCC1 (stereo partly drawn) [Compound 13] | 1000 to 10000 |  | < 30
Cn1cnnc1CC1(c2cccc(-n3cc4c(C(F)(F)F)cc(CN5CCC(OCCN6CCN(CC7CCN(c8ccc9c(c8)CN([C@@H]8CCC(=O)NC8=O)C9=O)CC7)CC6)CC5)cn4c3=O)c2)COC1 (single isomer, unassigned) [Compound 77] | 300 to 1000 | 30 to 50 | 
Cn1cnnc1[C@@H](c1cccc(-n2cc3c(C(F)(F)F)cc(CN4CCN(CC(=O)N5CCC(CN6CCN(c7ccc8c(c7)CN([C@@H]7CCC(=O)NC7=O)C8=O)CC6)CC5)CC4)cn3c2=O)c1)C1CCC1 (single isomer, unassigned) [Compound 121] | 30 to 300 |  | 50 to 70
Cn1cnnc1[C@@H](c1cccc(-n2cc3c(C(F)(F)F)cc(CN4CCC(OCCc5ccc(CN6CCN(c7ccc8c(c7)CN([C@@H]7CCC(=O)NC7=O)C8=O)CC6)cc5)CC4)cn3c2=O)c1)C1CCC1 (single isomer, unassigned) [Compound 115] | > 10000 |  | < 30
CN(CCC(=O)N1CCC(CN2CCN(c3ccc4c(c3)CN([C@H]3CCC(=O)NC3=O)C4=O)CC2)CC1)Cc1cc(C(F)(F)F)c2cn(-c3cccc([C@H](c4nncn4C)C4CCC4)c3)c(=O)n2c1 (single isomer, unassigned) [Compound 120] | 30 to 300 |  | 50 to 70
Cn1cnnc1[C@@H](c1cccc(-n2cc3c(C(F)(F)F)cc(CN4CCC(OCc5ccc(CN6CCN(c7ccc8c(c7)CN([C@@H]7CCC(=O)NC7=O)C8=O)CC6)cc5)CC4)cn3c2=O)c1)C1CCC1 (single isomer, unassigned) [Compound 91] | 300 to 1000 | 30 to 50 | 
Cn1cnnc1CC1(c2cccc(-n3cc4c(C(F)(F)F)cc(CNCCOCCOCCNc5cccc6c5C(=O)N(C5CCC(=O)NC5=O)C6=O)cn4c3=O)c2)COC1 (stereo not drawn) [Compound 1] | > 10000 |  | < 30
Cn1cnnc1[C@@H](c1cccc(-n2cc3c(C(F)(F)F)cc(CN4CCC(O[C@H]5CCCN(C(=O)c6ccc(N7CCN(c8ccc9c(c8)CN([C@H]8CCC(=O)NC8=O)C9=O)CC7)cc6)C5)CC4)cn3c2=O)c1)C1CCC1 (single isomer, unassigned) [Compound 248] | < 30 |  | > 70
Cn1cnnc1CC1(c2cccc(-n3cc4c(C(F)(F)F)cc(CN5CCC[C@H](OCc6ccc(CN7CCN(c8ccc9c(c8)CN([C@H]8CCC(=O)NC8=O)C9=O)CC7)cc6)C5)cn4c3=O)c2)COC1 (single isomer, unassigned) [Compound 84] | 30 to 300 |  | 30 to 50
CN(CCCN1CCN(Cc2cc(C(F)(F)F)c3cn(-c4cccc([C@H](c5nncn5C)C5CCC5)c4)c(=O)n3c2)CC1)C(=O)c1ccc(N2CCN(c3ccc4c(c3)CN([C@@H]3CCC(=O)NC3=O)C4=O)CC2)cc1 (single isomer, unassigned) [Compound 123] | < 30 |  | > 70
CN(CCOC1CCN(Cc2cc(C(F)(F)F)c3cn(-c4cccc([C@H](c5nncn5C)C5CCC5)c4)c(=O)n3c2)CC1)C(=O)c1ccc(N2CC3CC(C2)N3c2ccc3c(c2)CN([C@@H]2CCC(=O)NC2=O)C3=O)cc1 (single isomer, unassigned) [Compound 89] | 1000 to 10000 | 30 to 50 | 
Cn1cnnc1CC1(c2cccc(-n3cc4c(C(F)(F)F)cc(CN5CCC(OCCCN6CCN(c7ccc8c(c7)CN([C@H]7CCC(=O)NC7=O)C8=O)CC6)CC5)cn4c3=O)c2)COC1 (single isomer, unassigned) [Compound 68] | > 10000 |  | < 30
Cn1cnnc1CC1(c2cccc(-n3cc4c(C(F)(F)F)cc(CN5CCC(COCc6ccc(CN7CCN(c8ccc9c(c8)CN([C@@H]8CCC(=O)NC8=O)C9=O)CC7)cc6)CC5)cn4c3=O)c2)COC1 [Compound 215] | 1000 to 10000 |  | < 30
Cn1cnnc1CC1(c2cccc(-n3cc4c(C(F)(F)F)cc(CN5CCC(OCc6ccc(CN7CCN(c8ccc9c(c8)CN([C@H]8CCC(=O)NC8=O)C9=O)CC7)cc6)CC5)cn4c3=O)c2)COC1 (single isomer, unassigned) [Compound 94] | < 30 |  | > 70
Cn1cnnc1[C@@H](c1cccc(-n2cc3c(C(F)(F)F)cc(CN4CCC(OC(=O)N5CCC(CN6CCN(c7ccc8c(c7)CN([C@@H]7CCC(=O)NC7=O)C8=O)CC6)CC5)CC4)cn3c2=O)c1)C1CCC1 [Compound 237] | 30 to 300 | 50 to 70 | 
CN(CCO[C@H]1CCCN(Cc2cc(C(F)(F)F)c3cn(-c4cccc([C@H](c5nncn5C)C5CCC5)c4)c(=O)n3c2)C1)C(=O)c1ccc(N2CCN(c3ccc4c(c3)CN([C@H]3CCC(=O)NC3=O)C4=O)CC2)cc1 [Compound 106] | 300 to 1000 |  | 
Cn1cnnc1[C@@H](c1cccc(-n2cc3c(C(F)(F)F)cc(CN4CCC[C@H](OC5CCN(C(=O)c6ccc(N7CCN(c8ccc9c(c8)CN([C@@H]8CCC(=O)NC8=O)C9=O)CC7)cc6)CC5)C4)cn3c2=O)c1)C1CCC1 (single isomer, unassigned) [Compound 195] | 30 to 300 |  | 50 to 70
CN(C(=O)c1ccc(N2CCN(c3ccc4c(c3)CN([C@H]3CCC(=O)NC3=O)C4=O)CC2)cc1)C1CCN(Cc2cc(C(F)(F)F)c3cn(-c4cccc([C@H](c5nncn5C)C5CCC5)c4)c(=O)n3c2)CC1 [Compound 138] | 300 to 1000 |  | < 30
Cn1cnnc1[C@@H](c1cccc(-n2cc3c(C(F)(F)F)cc(CN4CCC[C@H](OCc5ccc(CN6CCN(c7ccc8c(c7)CN([C@@H]7CCC(=O)NC7=O)C8=O)CC6)cc5)C4)cn3c2=O)c1)C1CCC1 (single isomer, unassigned) [Compound 81] | > 10000 |  | 
Cn1cnnc1CC1(c2cccc(N3Cc4c(cc(CN5CCC(OCCN6CCC(CN7CCN(c8ccc9c(c8)CN([C@H]8CCC(=O)NC8=O)C9=O)CC7)CC6)CC5)cc4C(F)(F)F)C3=O)c2)COC1 [Compound 76] | 30 to 300 |  | 50 to 70
CN(CCOC1CCN(Cc2cc(C(F)(F)F)c3cn(-c4cccc([C@H](c5nncn5C)C5CCC5)c4)c(=O)n3c2)CC1)C(=O)c1ccc(C2CCN(c3ccc4c(c3)CN([C@@H]3CCC(=O)NC3=O)C4=O)CC2)cc1 (single isomer, unassigned) [Compound 107] | 30 to 300 | 50 to 70 | 
CN(CCN(C)C(=O)c1ccc(N2CCN(c3ccc4c(c3)CN([C@H]3CCC(=O)NC3=O)C4=O)CC2)cc1)Cc1cc(C(F)(F)F)c2cn(-c3cccc([C@H](c4nncn4C)C4CCC4)c3)c(=O)n2c1 (single isomer, unassigned) [Compound 140] | 30 to 300 |  | 
CO[C@H]1C[C@](c2cccc(-n3cc4c(C(F)(F)F)cc(CN5CCC(OCc6ccc(CN7CCN(c8ccc9c(c8)CN([C@@H]8CCC(=O)NC8=O)C9=O)CC7)cc6)CC5)cn4c3=O)c2)(c2nncn2C)C1 (single isomer, unassigned) [Compound 231] | 300 to 1000 |  | 30 to 50
CO[C@H]1C[C@](c2cccc(-n3cc4c(C(F)(F)F)cc(CN5CCC(COCc6ccc(CN7CCN(c8ccc9c(c8)CN([C@H]8CCC(=O)NC8=O)C9=O)CC7)cc6)CC5)cn4c3=O)c2)(c2nncn2C)C1 [Compound 224] | < 30 |  | 50 to 70
Cn1cnnc1[C@@H](c1cccc(-n2cc3c(C(F)(F)F)cc(CN4CCN(CCc5ccc(C6CCN(c7ccc8c(c7)CN([C@H]7CCC(=O)NC7=O)C8=O)CC6)cc5)CC4)cn3c2=O)c1)C1CCC1 (single isomer, unassigned) [Compound 228] | < 30 |  | > 70
Cn1cnnc1CC1(c2cccc(-n3cc4c(C(F)(F)F)cc(CN5CCC(OCCOCc6ccc(CN7CCN(c8cc9c(cc8F)C(=O)N(C8CCC(=O)NC8=O)C9=O)CC7)cc6)CC5)cn4c3=O)c2)COC1 (stereo not drawn) [Compound 18] | > 10000 |  | < 30
